Results taken from patent publication US7816390B2, “N-substituted tricyclic 3-aminopyrazoles as anti-mitotic tubulin polymerization inhibitors” (Janssen Pharmaceutica NV, priority 2008, dated 2010).
Values joined by “and” are separate entries in the source; they are usually repeats but may differ in a detail not shown here. Equal entries are not always repeated. Where two headings read alike, the source gives them in different places.

How the values were obtained:
[1] = system: bovine tubulin; assay: In vitro tubulin polymerization assay (CytoDYNAMIX Screen 03); format: biochemical; settings: for effect on tubulin polymerization curve (Vmax): 10 μM; for IC50: 3 mg/mL bovine tubulin, absorbance at 340 nm, relative to Vmax of DMSO controls, read-out: IC50 for inhibition of tubulin polymerization
Experimental: Compounds were assayed in vitro for effects on tubulin polymerization using a commercially available assay kit from Cytoskeleton (CytoDYNAMIX Screen 03).
Methods: Briefly, this assay is based on the observation that light scattered by microtubules is proportional to the concentration of microtubule polymer. The standard polymerization reaction contains 100 μL volume of tubulin solution consisting of 3 mg/mL bovine tubulin in 80 mM PIPES pH 6.9, 0.5 mM EGTA, 2 mM MgCl2, 1 mM GTP and 10% glycerol. The tubulin solution (100 μL/well) is added rapidly to wells of a 96-well plate containing duplicate aliquots (10 μL) of experimental compounds in DMSO to achieve a final well concentration of 1.0 and 10 μM in a preliminary screening assay. Control wells contain the same final concentration of DMSO (<0.5%). Following initiation of the polymerization reaction by incubation at 37° C., absorbance at 340 nm is measured every minute for 60 minutes using a SpectraMax plate reader. […] Inhibition of tubulin polymerization by experimental compounds is calculated relative to the Vmax of the DMSO controls. A more detailed description of assay conditions and assay optimization can be found in the Assay Kit Instructions. The resulting polymerization curve (OD vs. Time in sec) is represented by three phases of microtubule polymerization, including nucleation (Phase I), microtubule growth (Phase II) and finally, steady-state equilibrium (Phase III). Compounds that interact (bind) with tubulin alter one or more of these characteristic phases of tubulin polymerization.

[2] = system: human tumor cell lines (AsPC-1, H460, PC3, T45D, A375, LoVo); assay: Tumor cell proliferation assay (14C-thymidine incorporation); format: cell-based
Experimental: (§1) The compound N-(3-ethoxyphenyl)-1,4-dihydro-6-ethoxy-7-(3-hydroxypropoxy)-1-methylindeno[1,2-c]pyrazole-3-amine was evaluated for direct effects on the growth of several human tumor cell lines derived from human cancers of varying origin (HeLa, cervical, H460 lung, LoVo colon, LnCAP and PC3 prostate lines, T47D breast, A375 melanoma, AsPC1 pancreatic and U87MG glioblastoma) and on the proliferation of normal human umbilical vein endothelial cells (HUVEC). Colchicine, nocodazole, doxorubicin and paclitaxel were evaluated as comparators.
(§2) Methods: Tumor cell anti-proliferative activity was assessed using standard in vitro cell proliferation assays in which the IC50 for inhibition of cell proliferation by a compound was measured using ^14C-thymidine incorporation into cellular DNA. Briefly, cells were plated into 96-well microplates and allowed to adhere overnight. Compound was added the next day and cells were incubated for an additional 24 hours. [^14C]-thymidine was allowed to incorporate into cellular DNA for 24 hours after which the plate was washed and counted in a scintillation counter.

[3] = system: human umbilical vein endothelial cells (HUVEC); assay: HUVEC proliferation assay (14C-thymidine incorporation); format: cell-based
Experimental: as §1, §2

[4] = system: tubulin (colchicine binding site); assay: ThermoFluor binding assay
[5] = system: tubulin (colchicine binding site); assay: Radiolabeled [3H]-colchicine competition SPA assay

Structure (SMILES): CC(=O)O[C@H]1C(=O)[C@@]2(C)[C@H]([C@H](OC(=O)c3ccccc3)[C@]3(O)C[C@H](OC(=O)[C@H](O)[C@@H](NC(=O)c4ccccc4)c4ccccc4)C(C)=C1C3(C)C)[C@]1(OC(C)=O)CO[C@@H]1C[C@@H]2O [paclitaxel]
- effect on tubulin [1]: stabilization of tubulin
- effect on tubulin polymerization curve (Vmax) [1]: dramatic enhancement of the Vmax of the growth phase
- anti-proliferative potency ([2]; H460 lung, T47D breast, PC3 prostate and LoVo colon lines): sub-nM potency

Structure (SMILES): CCOc1cccc(Nc2nn(C)c3c2Cc2cc(OCC)c(OCCCO)cc2-3)c1 [N-(3-ethoxyphenyl)-1,4-dihydro-6-ethoxy-7-(3-hydroxypropoxy)-1-methylindeno[1,2-c]pyrazole-3-amine]
- IC50 [1]: 2400 nM and 2400 to 3700 nM
- IC50 ([3]; read-out: IC50 for inhibition of LSGS-stimulated HUVEC growth): < 10 nM
- IC50 ([3]; read-out: IC50 versus confluent, non-proliferating HUVEC cells): > 10000 nM
- binding at the colchicine binding site [4]: binding of this compound at the colchicine binding site was also demonstrated
- fold less potent compared to paclitaxel ([2]; depending on the cell line examined): approximately 10 fold
- IC50 ([2]; range over 6 of 6 human tumor cell lines (AsPC-1, H460, PC3, T45D, A375, LoVo), read-out: IC50 for inhibition of tumor cell proliferation): 2 to 10 nM
- competition with [3H]-colchicine binding [5]: competed with [^3H]-colchicine binding in a manner similar to unlabeled colchicine

Structure (SMILES): CC[C@]1(O)C[C@@H]2CN(CCc3c([nH]c4ccccc34)[C@@](C(=O)OC)(c3cc4c(cc3OC)N(C)[C@H]3[C@@](O)(C(=O)OC)[C@H](OC(C)=O)[C@]5(CC)C=CCN6CC[C@]43[C@@H]65)C2)C1 [vinblastine, reference compound]
- competition with [3H]-colchicine binding [5]: no significant competition

Structure (SMILES): COC(=O)Nc1nc2ccc(C(=O)c3cccs3)cc2[nH]1 [nocodazole]
- effect on tubulin polymerization curve (Vmax) [1]: significant decrease in the Vmax
- IC50 [1]: 1500 nM
